Measured values as given in patent US11260049B2, “TRPV4 antagonists” (GlaxoSmithKline Intellectual Property (No. 2) Limited, priority 2016, dated 2022).

The compounds below were run against human TRPV4 (Homo sapiens (Human), UniProt Q9HBA0) (assay: FLIPR assay for hTRPV4 expressed in BHK cells). Details: inhibition of Agonist Compound (EC80)-induced calcium signal; BHK/AC9 cells expressing human TRPV4; read-out: IC50.
Type: cell-based
Procedure, shortened: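 BHK/AC9 cells transduced with BacMam human TRPV4 (MOI 78), 15,000 cells/well, cultured 24 h at 37 °C. Loaded with 2 μM Fluo-4 AM and 500 μM Brilliant Black in HBSS for 1–1.5 h at room temperature in the dark. Intracellular calcium influx monitored by fluorescence.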

human TRPV4, sequence (Q9HBA0 whole entry): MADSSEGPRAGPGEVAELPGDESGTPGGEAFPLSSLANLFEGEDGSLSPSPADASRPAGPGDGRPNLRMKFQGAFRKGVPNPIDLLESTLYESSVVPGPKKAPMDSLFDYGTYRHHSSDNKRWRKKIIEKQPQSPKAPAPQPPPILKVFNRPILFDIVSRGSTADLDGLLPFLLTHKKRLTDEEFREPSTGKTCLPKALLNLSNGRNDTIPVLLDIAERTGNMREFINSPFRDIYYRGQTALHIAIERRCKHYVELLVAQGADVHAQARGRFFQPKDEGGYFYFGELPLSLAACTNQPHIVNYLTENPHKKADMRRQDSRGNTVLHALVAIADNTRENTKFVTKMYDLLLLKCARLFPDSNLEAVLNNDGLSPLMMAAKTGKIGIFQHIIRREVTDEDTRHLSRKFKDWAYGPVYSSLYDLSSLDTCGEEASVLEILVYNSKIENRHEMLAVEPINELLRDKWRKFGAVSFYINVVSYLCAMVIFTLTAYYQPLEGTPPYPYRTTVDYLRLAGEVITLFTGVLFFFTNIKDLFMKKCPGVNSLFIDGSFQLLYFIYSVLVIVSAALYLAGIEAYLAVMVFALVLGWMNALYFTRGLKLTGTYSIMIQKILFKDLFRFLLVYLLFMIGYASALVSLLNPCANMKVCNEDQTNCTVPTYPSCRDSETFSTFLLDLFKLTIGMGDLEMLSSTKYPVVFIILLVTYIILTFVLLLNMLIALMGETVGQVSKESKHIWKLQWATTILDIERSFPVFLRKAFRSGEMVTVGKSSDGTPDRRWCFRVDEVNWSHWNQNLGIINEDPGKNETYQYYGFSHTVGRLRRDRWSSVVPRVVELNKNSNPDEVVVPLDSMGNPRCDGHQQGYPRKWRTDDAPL

SMILES	IC50 [nM]
N#Cc1ccc(S(=O)(=O)[C@H]2CN(S(=O)(=O)c3ccc(C(F)(F)F)cc3Br)C[C@@]2(O)CO)cc1 [Example 32, 4-(((3S,4R)-1-((2-bromo-4-(trifluoromethyl)phenyl)sulfonyl)-4-hydroxy-4-(hydroxymethyl)pyrrolidin-3-yl)sulfonyl)benzonitrile]	10 to 100
O=S(=O)(c1cnc(C(F)(F)F)nc1)[C@H]1CN(S(=O)(=O)c2ccc(Cl)cc2Cl)C[C@@]1(O)CO [Example 108, (3R,4S)-1-((2,4-dichlorophenyl)sulfonyl)-3-(hydroxymethyl)-4-((2-(trifluoromethyl)pyrimidin-5-yl)sulfonyl)pyrrolidin-3-ol]	10 to 100
N#Cc1cc(S(=O)(=O)[C@H]2CN(S(=O)(=O)c3ccc(Cl)cc3Cl)C[C@@]2(O)CO)ccc1Cl [Example 103, 2-chloro-5-(((3S,4R)-1-((2,4-dichlorophenyl)sulfonyl)-4-hydroxy-4-(hydroxymethyl)pyrrolidin-3-yl)sulfonyl)benzonitrile]	10 to 100
N#Cc1ccc(S(=O)(=O)N2C[C@H](S(=O)(=O)c3ccc(Cl)cc3)[C@@](O)(CO)C2)c(Cl)c1 [Example 23, 3-chloro-4-(((3S,4S)-4-((4-chlorophenyl)sulfonyl)-3-hydroxy-3-(hydroxymethyl)pyrrolidin-1-yl)sulfonyl)benzonitrile]	10 to 100
N#Cc1ccc(S(=O)(=O)[C@H]2CN(S(=O)(=O)c3ccc(C(F)(F)F)cc3Cl)C[C@@]2(O)CO)cc1F [Example 14, 4-(((3S,4R)-1-((2-chloro-4-(trifluoromethyl)phenyl)sulfonyl)-4-hydroxy-4-(hydroxymethyl)pyrrolidin-3-yl)sulfonyl)-2-fluorobenzonitrile]	0.1 to 10
N#CCc1cc(Cl)ccc1S(=O)(=O)N1C[C@H](S(=O)(=O)c2ccc(Cl)cc2)[C@](O)(CO)C1 [Example 66, 2-(5-chloro-2-(((3R,4S)-4-((4-chlorophenyl)sulfonyl)-3-hydroxy-3-(hydroxymethyl)pyrrolidin-1-yl)sulfonyl)phenyl)acetonitrile]	10 to 100
O=S(=O)(c1ccc(Cl)c(F)c1)[C@H]1CN(S(=O)(=O)c2ccc(Cl)cc2Cl)C[C@@]1(O)CO [Example 88, (3R,4S)-4-((4-chloro-3-fluorophenyl)sulfonyl)-1-((2,4-dichlorophenyl)sulfonyl)-3-(hydroxymethyl)pyrrolidin-3-ol]	0.1 to 10
N#Cc1ccc(S(=O)(=O)N2C[C@H](S(=O)(=O)c3ccc(Br)cc3)[C@](O)(CO)C2)c(Cl)c1 [Example 74, 4-(((3R,4S)-4-((4-bromophenyl)sulfonyl)-3-hydroxy-3-(hydroxymethyl)pyrrolidin-1-yl)sulfonyl)-3-chlorobenzonitrile]	0.1 to 10
N#Cc1ccc(S(=O)(=O)[C@H]2CN(S(=O)(=O)c3ccccc3Cl)C[C@@]2(O)CO)cc1F [Example 11, 4-(((3S,4R)-1-((2-chlorophenyl)sulfonyl)-4-hydroxy-4-(hydroxymethyl)pyrrolidin-3-yl)sulfonyl)-2-fluorobenzonitrile]	10 to 100
N#Cc1ccc(S(=O)(=O)[C@H]2CN(S(=O)(=O)c3ccc(C(F)(F)F)cc3F)C[C@@]2(O)CO)cc1F [Example 69, 2-fluoro-4-(((3S,4R)-1-((2-fluoro-4-(trifluoromethyl)phenyl)sulfonyl)-4-hydroxy-4-(hydroxymethyl)pyrrolidin-3-yl)sulfonyl)benzonitrile]	10 to 100
N#Cc1cc(C(F)(F)F)ccc1S(=O)(=O)N1C[C@H](S(=O)(=O)c2ccc(F)c(F)c2)[C@@](O)(CO)C1 [Example 77, 2-(((3S,4S)-4-((3,4-difluorophenyl)sulfonyl)-3-hydroxy-3-(hydroxymethyl)pyrrolidin-1-yl)sulfonyl)-5-(trifluoromethyl)benzonitrile]	10 to 100
N#Cc1ncccc1S(=O)(=O)N1C[C@H](S(=O)(=O)c2ccc(Cl)cc2)[C@](O)(CO)C1 [Example 111, 3-(((3R,4S)-4-((4-chlorophenyl)sulfonyl)-3-hydroxy-3-(hydroxymethyl)pyrrolidin-1-yl)sulfonyl)picolinonitrile]	10 to 100
COc1ccc(S(=O)(=O)N2C[C@H](S(=O)(=O)c3ccc(C#N)cc3)[C@](O)(CO)C2)c(C(F)(F)F)c1 [Example 31, 4-(((3S,4R)-4-hydroxy-4-(hydroxymethyl)-1-((4-methoxy-2-(trifluoromethyl)phenyl)sulfonyl)pyrrolidin-3-yl)sulfonyl)benzonitrile]	10 to 100
N#Cc1ccc(S(=O)(=O)[C@H]2CN(S(=O)(=O)c3cc(F)c(Cl)cc3Cl)C[C@@]2(O)CO)cc1F [Example 16, 4-(((3S,4R)-1-((2,4-dichloro-5-fluorophenyl)sulfonyl)-4-hydroxy-4-(hydroxymethyl)pyrrolidin-3-yl)sulfonyl)-2-fluorobenzonitrile]	0.1 to 10
N#Cc1ccc(S(=O)(=O)[C@H]2CN(S(=O)(=O)c3ccc(Cl)cc3Cl)C[C@@]2(O)CO)cc1 [Example 82, 4-(((3S,4R)-1-((2,4-dichlorophenyl)sulfonyl)-4-hydroxy-4-(hydroxymethyl)pyrrolidin-3-yl)sulfonyl)benzonitrile]	0.1 to 10
Cc1nc(C(F)(F)F)ccc1S(=O)(=O)N1C[C@H](S(=O)(=O)c2ccc(C#N)c(F)c2)[C@](O)(CO)C1 [Example 72, 2-fluoro-4-(((3S,4R)-4-hydroxy-4-(hydroxymethyl)-1-((2-methyl-6-(trifluoromethyl)pyridin-3-yl)sulfonyl)pyrrolidin-3-yl)sulfonyl)benzonitrile]	10 to 100
N#Cc1ccc(S(=O)(=O)N2C[C@H](S(=O)(=O)c3ccc(Cl)cc3)[C@](O)(CO)C2)c(C(F)F)c1 [Example 48, 4-(((3R,4S)-4-((4-chlorophenyl)sulfonyl)-3-hydroxy-3-(hydroxymethyl)pyrrolidin-1-yl)sulfonyl)-3-(difluoromethyl)benzonitrile]	0.1 to 10
N#Cc1ccc(S(=O)(=O)[C@H]2CN(S(=O)(=O)c3ccc(Cl)cc3Br)C[C@@]2(O)CO)cc1 [Example 59, 4-(((3S,4R)-1-((2-bromo-4-chlorophenyl)sulfonyl)-4-hydroxy-4-(hydroxymethyl)pyrrolidin-3-yl)sulfonyl)benzonitrile]	0.1 to 10
CC(C)c1ccc(S(=O)(=O)[C@H]2CN(S(=O)(=O)c3ccc(C#N)cc3Cl)C[C@@]2(O)CO)cc1 [Example 105, 3-chloro-4-(((3R,4S)-3-hydroxy-3-(hydroxymethyl)-4-((4-isopropylphenyl)sulfonyl)pyrrolidin-1-yl)sulfonyl)benzonitrile]	10 to 100
N#Cc1ccc(S(=O)(=O)[C@H]2CN(S(=O)(=O)c3ccc(OC(F)(F)F)cc3Cl)C[C@@]2(O)CO)cc1F [Example 15, 4-(((3S,4R)-1-((2-chloro-4-(trifluoromethoxy)phenyl)sulfonyl)-4-hydroxy-4-(hydroxymethyl)pyrrolidin-3-yl)sulfonyl)-2-fluorobenzonitrile]	10 to 100
